Where “and” joins values, the source holds several entries; their conditions need not be identical. Equal entries are not always repeated. Where two headings read alike, the source gives them in different places.
Tests used:
[1] = for Pct acceptor / Pct donor / Pct membrane: PAMPA; for Pct membrane: compound found in membranes; for Pampa Peff: membrane permeation coefficient
hDAGL-α = target: T1, hDAGL-α (Homo sapiens, UniProt Q9Y4D2); experiment: Biochemical DAGLα activity assay; conditions: for inhibition at 10 µM: read-out: DAGL % inhibition at 10 µM ± SD
T1 construct: expressed in transfected cells; host or cells: HEK293T (transient), membrane preparation
T1 sequence (Q9Y4D2 1-1042): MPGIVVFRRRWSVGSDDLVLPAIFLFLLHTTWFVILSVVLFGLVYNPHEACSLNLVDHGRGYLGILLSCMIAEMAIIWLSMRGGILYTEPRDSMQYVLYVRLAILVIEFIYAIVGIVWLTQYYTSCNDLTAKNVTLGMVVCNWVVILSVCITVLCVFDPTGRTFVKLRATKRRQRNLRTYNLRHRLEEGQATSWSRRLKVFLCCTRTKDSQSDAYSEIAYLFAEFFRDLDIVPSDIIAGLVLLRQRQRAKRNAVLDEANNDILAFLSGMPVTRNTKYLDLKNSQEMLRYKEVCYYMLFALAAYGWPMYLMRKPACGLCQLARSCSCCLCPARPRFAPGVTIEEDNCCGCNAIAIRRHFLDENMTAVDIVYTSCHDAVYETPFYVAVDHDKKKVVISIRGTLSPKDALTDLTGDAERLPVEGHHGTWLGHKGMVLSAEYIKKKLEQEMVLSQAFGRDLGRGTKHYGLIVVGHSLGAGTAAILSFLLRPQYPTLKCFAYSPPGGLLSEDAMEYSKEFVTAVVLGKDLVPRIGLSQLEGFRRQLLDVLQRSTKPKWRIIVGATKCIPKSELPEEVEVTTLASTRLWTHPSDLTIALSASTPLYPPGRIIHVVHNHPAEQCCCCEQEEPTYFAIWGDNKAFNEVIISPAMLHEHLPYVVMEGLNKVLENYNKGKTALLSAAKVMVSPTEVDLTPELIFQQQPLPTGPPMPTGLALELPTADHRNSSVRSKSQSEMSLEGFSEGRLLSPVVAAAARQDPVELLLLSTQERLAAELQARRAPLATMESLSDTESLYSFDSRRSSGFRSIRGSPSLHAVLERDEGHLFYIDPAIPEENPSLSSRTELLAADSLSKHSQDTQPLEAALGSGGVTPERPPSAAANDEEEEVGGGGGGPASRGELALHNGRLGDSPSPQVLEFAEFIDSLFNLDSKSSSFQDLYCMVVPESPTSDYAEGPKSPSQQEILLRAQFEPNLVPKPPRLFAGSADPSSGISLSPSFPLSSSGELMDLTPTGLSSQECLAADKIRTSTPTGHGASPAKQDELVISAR
Procedure: (§1) Cell culture and membrane preparation were performed as previously described. HEK293T cells (source: Dutch Cancer Institute) were grown in DMEM with stable glutamine and phenolred (PAA), 10% New Born Calf serum, penicillin and streptomycin. Cells were passaged every 2–3 days by resuspending in medium and seeding them to appropriate confluence. Membranes were prepared from transiently transfected HEK293T cells. One day prior to transfection 10^7 cells were seeded in a 15 cm petri dish. Cells were transfected by the addition of a 3:1 mixture of polyethyleneimine (60 μg) and plasmid DNA (20 μg) in 2 ml serum-free medium. The medium was refreshed after 24 h, and after 72 h the cells were harvested by suspending them in 20 ml medium. The suspension was centrifuged for 10 min at 1000, rpm, and the supernatant was removed. The cell pellet was stored at −80 °C until use. Cell pellets were thawed on ice and suspended in lysis buffer A (20 mM HEPES, 2 mM DTT, 0.25 M sucrose, 1 mM MgCl2, […] Benzonase). The suspension was homogenized by polytrone (3 × 7 s) and incubated for 30 min on ice. The suspension was subjected to ultracentrifugation (100,000 × g, 30 min, 4 °C, Beckman Coulter, Type Ti70 rotor) to yield the cytosolic fraction in the supernatant and the membrane fraction as a pellet. The pellet was resuspended in lysis buffer B (20 mM HEPES, 2 mM DTT). The protein concentration was determined with Quick Start Bradford assay (Biorad). The protein fractions were diluted to a total protein concentration of 1 mg ml^−1 and stored in small aliquots at −80 °C until use.
hDAGL-α activity was measured by the extent of the hydrolysis of para-nitrophenylbutyrate (PNP-butyrate) by membrane preparations from HEK293T cells (source: Dutch Cancer Institute) transiently transfected with hDAGL-α (ref. [43]). Percentage of inhibition of reference ligands was determined in comparison with an untreated control. Reactions were performed in 50 mM pH 7.2 HEPES buffer with 0.05 μg μl^−1 final protein concentration hDAGL-α transfected protein.

mCB2R = mCB2R (Mus musculus, UniProt P47936); experiment: biochemical; type: binding; set-up: from tissue; host or cells: spleen of male C57BL/6J mice
Sequence of mCB2R (P47936 whole entry): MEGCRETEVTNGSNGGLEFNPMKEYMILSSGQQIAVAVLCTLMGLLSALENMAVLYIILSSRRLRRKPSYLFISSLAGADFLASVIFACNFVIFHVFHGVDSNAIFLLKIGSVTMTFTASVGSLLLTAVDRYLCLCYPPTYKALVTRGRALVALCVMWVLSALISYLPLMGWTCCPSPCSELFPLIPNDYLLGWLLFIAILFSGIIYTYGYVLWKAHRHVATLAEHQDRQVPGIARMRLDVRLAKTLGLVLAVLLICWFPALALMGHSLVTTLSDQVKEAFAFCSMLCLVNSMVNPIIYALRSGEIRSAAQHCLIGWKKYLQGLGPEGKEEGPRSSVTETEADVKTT

hCB2R [2] = target: T2, hCB2R (Homo sapiens, UniProt P34972); experiment: cell-based; type: cell-based; conditions: for Emax: read-out: Emax ± SEM β-AR recruitment hCB2R
T2 sequence (P34972 whole entry): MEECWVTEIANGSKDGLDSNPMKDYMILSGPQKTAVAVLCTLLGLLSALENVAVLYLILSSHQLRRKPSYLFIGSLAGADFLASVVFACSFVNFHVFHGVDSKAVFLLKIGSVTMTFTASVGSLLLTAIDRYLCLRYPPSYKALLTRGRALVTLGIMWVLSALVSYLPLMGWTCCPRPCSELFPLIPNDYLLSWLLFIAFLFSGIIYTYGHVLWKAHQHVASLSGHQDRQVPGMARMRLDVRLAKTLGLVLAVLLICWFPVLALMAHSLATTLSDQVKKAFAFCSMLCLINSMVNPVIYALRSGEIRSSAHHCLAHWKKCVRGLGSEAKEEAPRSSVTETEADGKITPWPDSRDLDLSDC

MAGL = target: T3, MAGL (Homo sapiens, UniProt Q99685); experiment: Biochemical MAGL activity assay; conditions: for inhibition at 10 µM: read-out: MAGL % inhibition at 10 µM ± SD
T3 construct: expressed in transfected cells; host or cells: HEK293T (transient), membrane preparation
T3 sequence (Q99685 1-303): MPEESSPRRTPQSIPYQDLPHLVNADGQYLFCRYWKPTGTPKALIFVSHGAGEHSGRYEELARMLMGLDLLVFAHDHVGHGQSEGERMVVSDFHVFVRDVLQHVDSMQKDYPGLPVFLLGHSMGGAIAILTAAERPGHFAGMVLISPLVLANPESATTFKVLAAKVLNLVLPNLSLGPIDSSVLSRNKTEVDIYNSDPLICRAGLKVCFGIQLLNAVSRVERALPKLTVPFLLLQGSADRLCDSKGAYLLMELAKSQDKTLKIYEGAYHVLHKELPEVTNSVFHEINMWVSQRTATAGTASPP
Procedure: as §1
Percentage of inhibition of reference ligands was determined in comparison with an untreated control. […] Fluorescence was measured in 5 min intervals for 60 min.

5-HT2B (h) = target: T4, 5-HT2B (h) (Homo sapiens, UniProt P41595); experiment: CEREP panel; type: binding; conditions: for inhibition at 10 µM: read-out: % inhibition 5-HT2B (h)
T4 construct: CEREP (contract assay)
T4 sequence (P41595 whole entry): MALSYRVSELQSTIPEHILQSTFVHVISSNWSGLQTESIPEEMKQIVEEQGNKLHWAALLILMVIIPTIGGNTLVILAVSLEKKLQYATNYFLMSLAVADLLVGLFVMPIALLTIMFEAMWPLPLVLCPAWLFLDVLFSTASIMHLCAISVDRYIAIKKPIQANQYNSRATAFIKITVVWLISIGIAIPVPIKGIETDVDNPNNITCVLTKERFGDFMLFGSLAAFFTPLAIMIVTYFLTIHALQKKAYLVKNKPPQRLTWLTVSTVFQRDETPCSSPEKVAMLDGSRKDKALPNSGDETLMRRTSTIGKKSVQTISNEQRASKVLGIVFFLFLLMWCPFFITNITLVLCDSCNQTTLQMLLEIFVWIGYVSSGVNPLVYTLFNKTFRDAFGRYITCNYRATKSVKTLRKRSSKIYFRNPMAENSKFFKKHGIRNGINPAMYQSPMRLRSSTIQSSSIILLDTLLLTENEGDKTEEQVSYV

hCB2R [3] = target: T2, hCB2R; experiment: cell-based; type: cell-based; set-up: expressed in transfected cells; host or cells: Flp-In-293 (Invitrogen #R750-07), pcDNA5/FRT
hCB2R [4] = target: T2, hCB2R; experiment: cell-based; type: cell-based; set-up: expressed in transfected cells; host or cells: Flp-In-293 (Invitrogen #R750-07), pcDNA5/FRT; remark: listed apart in the source
[5] = antagonists in presence of EC80 of CP55940

SMILES | Pct acceptor [1] [%] | Pct donor [1] [%] | Pct membrane [1] [%] | Pampa Peff [1] [cm/s*10-6] | DAGL % inhibition at 10 µM ± SD (hDAGL-α) [%] | pKi ± SEM mCB2R (mCB2R; mouse spleen membranes) | Emax ± SEM β-AR recruitment hCB2R (hCB2R [2]) | pEC50 ± SEM β-AR recruitment hCB2R (hCB2R [2]) | MAGL % inhibition at 10 µM ± SD (MAGL) [%] | % inhibition 5-HT2B (h) (5-HT2B (h); 10 µM) [%] | Emax ± SEM cAMP hCB2R (hCB2R [3]) | pEC50 ± SEM cAMP hCB2R (hCB2R [3]) | Emax ± SEM pERK hCB2R (hCB2R [4]) | pEC50 ± SEM pERK hCB2R (hCB2R [4]) | other results
CN1CCCC[C@H]1Cn1cc(C(=O)c2cc([N+](=O)[O-])ccc2I)c2ccccc21 [(S)-AM1241] | 2.2 | 34 | 64 | 1.41 | 9 ± 9 | 6.74 ± 0.2 | 29 ± 8 | 6.54 ± 0.44 | -4 ± 18 | 93 | 78 ± 1 | 7.40 ± 0.11 | 60 ± 11 | 6.92 ± 0.22 | CB2R Selectivity (binding, mouse) (mCB2R; 10^(pKi CB2R-pKi CB1R)): 2 fold
COc1ccc(C(=O)c2c(C)n(CCN3CCOCC3)c3cc(I)ccc23)cc1 [AM630] | 0.37 | 35.4 | 64.3 | 0.2 | 6 ± 12 | 7.66 ± 0.23 | -124 ± 6 | 6.15 ± 0.08 | 4 ± 16 | 65 | -152 ± 13 | 7.56 ± 0.05 | -92 ± 4 | 5.09 ± 0.06 | 
CCCCCCC(C)(C)c1ccc([C@@H]2C[C@H](O)CC[C@H]2CCCO)c(O)c1 [CP55940] |  |  |  | 0 |  |  |  |  |  |  |  |  |  |  | inhibition at 10 µM (hDAGL-α): 20 ± 16%; Ki (mCB2R; mouse spleen membranes, read-out: pKi ± SEM mCB2R (converted)): 0.000603 µM; Emax (hCB2R [2]): 80 ± 5%; inhibition at 10 µM (MAGL): 5 ± 16%; inhibition at 10 µM (5-HT2B (h); 10 µM): 96%
CCCCCCC(C)(C)c1cc(OC)c([C@@H]2C=C(CO)[C@@H]3C[C@H]2C3(C)C)c(OC)c1 [HU308] | 2.8 | 23.1 | 74.3 | 2.53 |  |  |  |  |  |  |  |  |  |  | inhibition at 10 µM (hDAGL-α): 42 ± 3%; Ki (mCB2R): 0.0708 µM; Emax (hCB2R [2]): 57 ± 10%; inhibition at 10 µM (MAGL): 7 ± 13%; inhibition at 10 µM (5-HT2B (h)): 28%; Emax (hCB2R [3]; read-out: Emax ± SEM cAMP hCB2R): 98 ± 1%; Emax (hCB2R [4]; read-out: Emax ± SEM pERK hCB2R): 93 ± 2%
CCCCCCC(C)(C)c1cc(OC)c(C2=C[C@H]3CC[C@]2(CO)C3(C)C)c(OC)c1 [HU910] | 1 | 42 | 57 | 0.45 | 36 ± 1 | 6.88 ± 0.17 |  |  | 20 ± 12 | 87 |  |  |  |  | pEC50 ± SEM β-AR recruitment hCB2R (hCB2R [2]; [5]): 7.75 ± 0.03; Emax ± SEM β-AR recruitment hCB2R (hCB2R [2]; normalized to 10 µM CP55940, negative = inhibition of EC80 of CP55940): 48 ± 6%; pEC50 ± SEM cAMP hCB2R (hCB2R [3]; [5]): 8.41 ± 0.13; Emax ± SEM cAMP hCB2R (hCB2R [3]; normalized to 10 µM CP55940): 98 ± 1%; pEC50 ± SEM pERK hCB2R (hCB2R [4]; [5]): 5.50 ± 0.10 and < 5.5; Emax ± SEM pERK hCB2R (hCB2R [4]; normalized to 10 µM CP55940): 104 ± 9%
CCCC(C)(C)c1ccc2c(c1)OC(C)(C)[C@@H]1CC=C(C)C[C@@H]21 [JWH133] | 2.3 | 36.1 | 61.7 | 1.86 | 30 ± 7 | 7.69 ± 0.23 | 62 ± 11 | 7.81 ± 0.22 | -20 ± 5 | 3 | 98 ± 1 | 8.38 ± 0.09 | 96 ± 13 | 6.19 ± 0.07 | CB2R Selectivity (binding, mouse) (mCB2R): 40 fold; CB2R Selectivity β-AR recruitment (hCB2R [2]): 275 fold
Cc1c(C(=O)c2cccc3ccccc23)c2cccc3c2n1[C@H](CN1CCOCC1)CO3 [WIN55212-2] | 0.5 | 50.6 | 49 | 0.25±0.22 | -9 ± 12 | 7.28 ± 0.17 |  |  | 3 ± 18 | 70 |  |  |  |  | 
